# Structures can show the parent of a compound that is named as a salt.
# Biological target: Full length human CDC7 protein co-expressed with DBF4 (Homo sapiens (Human), UniProt O00311)
# Experiment: CDC7 kinase biochemical assay (ADP-Glo, PDKtide substrate)
# Conditions: 0.1 nM CDC7/DBF4, 1 uM ATP, 10 uM PDKtide, 4 h
# Protocol: CDC7 Kinase Biochemical Assay Protocol:
# Full length human CDC7 protein co-expressed with DBF4 was purchased from SignalChem (China). CDC7 kinase activity was determined with PDKtide (SignalChem) as a substrate and by measuring ADP production using the ADP-Glo™ Kinase Assay kit (Promega) following the manufacturers instructions. The kinase reaction was performed using the following conditions: Buffer: 40 mM Tris pH 7.5, 20 mM MgCl2, 0.1 mg/ml BSA and 50 uM DTT. Final reaction mix contained 0.1 nM CDC7/DBF4, 1 uM ATP and 10 uM PDKtide. The kinase reaction time was 4 h. The ADP-Glo signal was measured using an EnVision plate reader (PerkinELmer).
# Percent inhibition of CDC7 kinase activity was calculated based on the following formula:
# [formula] • Ssample: the signal of compounds • SHigh Ctrl: the signal of high control (DMSO) • SLow Ctrl: the signal of low control (positive control CDC7 inhibitor)
# Sequence of Full length human CDC7 protein co-expressed with DBF4 (O00311 whole entry): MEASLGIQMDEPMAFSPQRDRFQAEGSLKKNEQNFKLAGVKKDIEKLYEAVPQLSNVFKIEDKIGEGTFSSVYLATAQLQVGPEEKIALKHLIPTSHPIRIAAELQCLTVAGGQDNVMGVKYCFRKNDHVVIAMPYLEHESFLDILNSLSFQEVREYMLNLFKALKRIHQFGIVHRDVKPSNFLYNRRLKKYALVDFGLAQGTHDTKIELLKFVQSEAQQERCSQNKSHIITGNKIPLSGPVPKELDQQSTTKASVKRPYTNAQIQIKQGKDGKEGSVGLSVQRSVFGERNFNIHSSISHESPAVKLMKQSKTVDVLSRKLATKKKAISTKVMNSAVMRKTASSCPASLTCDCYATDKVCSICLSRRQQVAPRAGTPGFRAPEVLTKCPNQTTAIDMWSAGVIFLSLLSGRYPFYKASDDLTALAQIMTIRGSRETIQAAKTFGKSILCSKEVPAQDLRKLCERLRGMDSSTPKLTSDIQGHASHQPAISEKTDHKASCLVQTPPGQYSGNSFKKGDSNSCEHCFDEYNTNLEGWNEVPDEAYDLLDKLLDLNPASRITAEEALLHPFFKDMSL
# Sequence of Full length human CDC7 protein co-expressed with DBF4 (Q9UBU7 whole entry partner): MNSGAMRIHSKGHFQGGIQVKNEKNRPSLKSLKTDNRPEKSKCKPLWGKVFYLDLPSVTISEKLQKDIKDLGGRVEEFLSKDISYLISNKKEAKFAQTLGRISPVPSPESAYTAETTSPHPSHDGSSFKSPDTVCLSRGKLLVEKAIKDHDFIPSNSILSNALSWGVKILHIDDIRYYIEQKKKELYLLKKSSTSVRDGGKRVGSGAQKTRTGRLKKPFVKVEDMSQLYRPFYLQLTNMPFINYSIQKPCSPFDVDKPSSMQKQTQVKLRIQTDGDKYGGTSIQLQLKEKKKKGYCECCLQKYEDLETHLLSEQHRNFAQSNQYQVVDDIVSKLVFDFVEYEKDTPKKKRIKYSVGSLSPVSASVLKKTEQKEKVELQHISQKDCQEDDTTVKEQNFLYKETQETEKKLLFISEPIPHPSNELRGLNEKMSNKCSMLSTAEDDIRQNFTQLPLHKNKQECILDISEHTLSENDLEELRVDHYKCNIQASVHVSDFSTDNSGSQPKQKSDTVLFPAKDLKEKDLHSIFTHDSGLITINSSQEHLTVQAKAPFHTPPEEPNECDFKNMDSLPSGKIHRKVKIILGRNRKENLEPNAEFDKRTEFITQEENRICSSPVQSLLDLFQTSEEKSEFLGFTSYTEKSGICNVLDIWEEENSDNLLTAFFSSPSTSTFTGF
row,SMILES,IC50
1,"CC(c1[nH]c(=O)c2sc(-c3cn[nH]c3)c3c2c1CCCO3)n1nccn1 (racemic) [Example 48, 2-(1H-pyrazol-4-yl)-7-[1-(triazol-2-yl)ethyl]-12-oxa-3-thia-6-azatricyclo[6.4.1.0^4,13] trideca-1,4(13),7-trien-5-one]",< 1 nM
2,"C[C@@H](c1[nH]c(=O)c2sc(-c3cn[nH]c3)c3c2c1CCCO3)n1cc(C#N)cn1 (single isomer, unassigned) [Example 26]",< 1 nM
3,"C[C@H](c1[nH]c(=O)c2sc(-c3cn[nH]c3)c3c2c1CCCO3)n1cc(C#N)cn1 (single isomer, unassigned) [Example 27]",< 1 nM
4,"C[C@H](O)c1[nH]c(=O)c2sc(-c3cn[nH]c3)c3c2c1CCCO3 (single isomer, unassigned) [Example 32]",< 1 nM
5,"C[C@@H](O)c1[nH]c(=O)c2sc(-c3cn[nH]c3)c3c2c1CCCO3 (single isomer, unassigned) [Example 33]",< 1 nM
6,"COC[C@H](c1[nH]c(=O)c2sc(-c3cn[nH]c3)c3c2c1CCCO3)n1cccn1 (single isomer, unassigned) [Example 35]",< 1 nM
7,"COC[C@@H](c1[nH]c(=O)c2sc(-c3cn[nH]c3)c3c2c1CCCO3)n1cccn1 (single isomer, unassigned) [Example 36]",< 1 nM
8,"COC[C@H](c1[nH]c(=O)c2sc(-c3cn[nH]c3)c3c2c1CCCO3)N1CCC(F)(F)C1 (single isomer, unassigned) [Example 37]",1 to 10 nM
9,"COC[C@@H](c1[nH]c(=O)c2sc(-c3cn[nH]c3)c3c2c1CCCO3)N1CCC(F)(F)C1 (single isomer, unassigned) [Example 38]",1 to 10 nM
10,"COC[C@@H](OC)c1[nH]c(=O)c2sc(-c3cn[nH]c3)c3c2c1CCCO3 (single isomer, unassigned) [Example 39]",< 1 nM
11,"COC[C@H](OC)c1[nH]c(=O)c2sc(-c3cn[nH]c3)c3c2c1CCCO3 (single isomer, unassigned) [Example 40]",< 1 nM
12,"C[C@H](c1[nH]c(=O)c2sc(-c3cn[nH]c3)c3c2c1CCCO3)n1ccnn1 (single isomer, unassigned) [Example 49]",< 1 nM
13,"C[C@@H](c1[nH]c(=O)c2sc(-c3cn[nH]c3)c3c2c1CCCO3)n1ccnn1 (single isomer, unassigned) [Example 50]",< 1 nM
14,"C[C@@](O)(c1[nH]c(=O)c2sc(-c3cn[nH]c3)c3c2c1CCCO3)C1CC1 (single isomer, unassigned) [Example 59]",< 1 nM
15,"Cc1[nH]c(=O)c2sc(-c3ccncc3)c3c2c1CCO3 [Example 2, 6-methyl-2-(pyridin-4-yl)-5,7-dihydro-3-oxa-1-thia-7-azaacenaphthylen-8(4H)-one]",< 1 nM
16,"Cc1[nH]c(=O)c2sc(-c3cn[nH]c3)c3c2c1CCO3 [Example 3, 6-methyl-2-(1H-pyrazol-4-yl)-5,7-dihydro-3-oxa-1-thia-7-azaacenaphthylen-8(4H)-one]",1 to 10 nM
17,"Cc1n[nH]cc1-c1sc2c(=O)[nH]c(C)c3c2c1OCC3 [Example 4, 6-methyl-2-(3-methyl-1H-pyrazol-4-yl)-5,7-dihydro-3-oxa-1-thia-7-azaacenaphthylen-8(4H)-one]",< 1 nM
18,"Cc1n[nH]cc1-c1sc2c(=O)[nH]c(C)c3c2c1OCCC3 [Example 6, 5-methyl-1-(3-methyl-1H-pyrazol-4-yl)-4,6,7,8-tetrahydro-3H-9-oxa-2-thia-4-azabenzo[cd]azulen-3-one]",1 to 10 nM
19,"Cc1[nH]c(=O)c2sc(-c3cn[nH]c3)c3c2c1CC(C)O3 (stereo not drawn) [Example 9, 4,6-dimethyl-2-(1H-pyrazol-4-yl)-5,7-dihydro-3-oxa-1-thia-7-azaacenaphthylen-8(4H)-one]",< 1 nM
20,"O=c1[nH]c(CN2CC[C@H](O)C2)c2c3c(c(-c4ccncc4)sc13)OCCC2 [Example 10, (S)-5-((3-hydroxypyrrolidin-1-yl)methyl)-1-(pyridin-4-yl)-4,6,7,8-tetrahydro-3H-9-oxa-2-thia-4-azabenzo[cd]azulen-3-one]",1 to 10 nM
21,"O=c1[nH]c(CN2CC[C@H](O)C2)c2c3c(c(-c4cn[nH]c4)sc13)OCCC2 [Example 11, (S)-5-((3-hydroxypyrrolidin-1-yl)methyl)-1-(1H-pyrazol-4-yl)-4,6,7,8-tetrahydro-3H-9-oxa-2-thia-4-azabenzo[cd]azulen-3-one]",< 1 nM
22,"O=c1[nH]c(CN2CCC2)c2c3c(c(-c4ccncc4)sc13)OCCC2 [Example 12, 5-(azetidin-1-ylmethyl)-1-(pyridin-4-yl)-4,6,7,8-tetrahydro-3H-9-oxa-2-thia-4-azabenzo[cd]azulen-3-one]",< 1 nM
23,"CC(C)(C)OC(=O)NCc1[nH]c(=O)c2sc(-c3ccncc3)c3c2c1CCCO3 [Example 14, tert-butyl ((3-oxo-1-(pyridin-4-yl)-4,6,7,8-tetrahydro-3H-9-oxa-2-thia-4-azabenzo[cd]azulen-5-yl)methyl)carbamate]",1 to 10 nM
24,"NCc1[nH]c(=O)c2sc(-c3ccncc3)c3c2c1CCCO3 [Example 15, 5-(aminomethyl)-1-(pyridin-4-yl)-4,6,7,8-tetrahydro-3H-9-oxa-2-thia-4-azabenzo[cd]azulen-3-one;hydrochloride]",1 to 10 nM

# Next, values leading:
row,IC50,SMILES
1,< 1 nM,"C[C@](O)(c1[nH]c(=O)c2sc(-c3cn[nH]c3)c3c2c1CCCO3)C1CC1 (single isomer, unassigned) [Example 60]"
2,< 1 nM,"C[C@H]1Cc2c(C(C)(C)O)[nH]c(=O)c3sc(-c4cn[nH]c4)c(c23)O1 (single isomer, unassigned) [Example 61]"
3,< 1 nM,"C[C@@H]1Cc2c(C(C)(C)O)[nH]c(=O)c3sc(-c4cn[nH]c4)c(c23)O1 (single isomer, unassigned) [Example 62]"
4,< 1 nM,"C[C@H]1Cc2c(CN3CCC3)[nH]c(=O)c3sc(-c4cn[nH]c4)c(c23)O1 (single isomer, unassigned) [Example 63]"
5,< 1 nM,"C[C@@H]1Cc2c(CN3CCC3)[nH]c(=O)c3sc(-c4cn[nH]c4)c(c23)O1 (single isomer, unassigned) [Example 64]"
6,< 1 nM,"C[C@@H]1Cc2c(CN3CCC(F)(F)C3)[nH]c(=O)c3sc(-c4cn[nH]c4)c(c23)O1 (single isomer, unassigned) [Example 65]"
7,< 1 nM,"C[C@H]1Cc2c(CN3CCC(F)(F)C3)[nH]c(=O)c3sc(-c4cn[nH]c4)c(c23)O1 (single isomer, unassigned) [Example 66]"
8,< 1 nM,"CC[C@](C)(O)c1[nH]c(=O)c2sc(-c3ccncc3)c3c2c1CCCO3 (single isomer, unassigned) [Example 71]"
9,< 1 nM,"CC[C@@](C)(O)c1[nH]c(=O)c2sc(-c3ccncc3)c3c2c1CCCO3 (single isomer, unassigned) [Example 72]"
10,≥ 10 nM,"CC[C@](C)(O)c1[nH]c(=O)c2sc(-c3c[nH]nc3C)c3c2c1CCCO3 (single isomer, unassigned) [Example 73]"
11,≥ 10 nM,"CC[C@@](C)(O)c1[nH]c(=O)c2sc(-c3c[nH]nc3C)c3c2c1CCCO3 (single isomer, unassigned) [Example 74]"
12,< 1 nM,"C[C@H]1Cc2c(CN3CC(O)C3)[nH]c(=O)c3sc(-c4cn[nH]c4)c(c23)O1 (single isomer, unassigned) [Example 79]"
13,< 1 nM,"C[C@@H]1Cc2c(CN3CC(O)C3)[nH]c(=O)c3sc(-c4cn[nH]c4)c(c23)O1 (single isomer, unassigned) [Example 80]"
14,< 1 nM,"C[C@@H]1Cc2c(CN3CC[C@H]3C)[nH]c(=O)c3sc(-c4cn[nH]c4)c(c23)O1 (single isomer, unassigned) [Example 81]"
15,< 1 nM,"C[C@@H]1Cc2c(CN3CC[C@@H]3C)[nH]c(=O)c3sc(-c4cn[nH]c4)c(c23)O1 (single isomer, unassigned) [Example 82]"
16,< 1 nM,"C[C@H]1Cc2c(CN3CC[C@@H]3C)[nH]c(=O)c3sc(-c4cn[nH]c4)c(c23)O1 (single isomer, unassigned) [Example 83]"
17,< 1 nM,"C[C@@H]1CCN1Cc1[nH]c(=O)c2sc(-c3cn[nH]c3)c3c2c1C[C@H](C)O3 (single isomer, unassigned) [Example 84]"
18,< 1 nM,"CC1Cc2c(CN3CC(F)C3)[nH]c(=O)c3sc(-c4cn[nH]c4)c(c23)O1 (stereo in doubt) [Example 67, (R)-6-((3-fluoroazetidin-1-yl)methyl)-4-methyl-2-(1H-pyrazol-4-yl)-5,7-dihydro-3-oxa-1-thia-7-azaacenaphthylen-8(4H)-one]"
19,< 1 nM,"CC1Cc2c(CN3CC(F)C3)[nH]c(=O)c3sc(-c4cn[nH]c4)c(c23)O1 (stereo in doubt) [Example 68, (S)-6-((3-fluoroazetidin-1-yl)methyl)-4-methyl-2-(1H-pyrazol-4-yl)-5,7-dihydro-3-oxa-1-thia-7-azaacenaphthylen-8(4H)-one]"
20,< 1 nM,"CC1Cc2c(CN3CC[C@H](F)C3)[nH]c(=O)c3sc(-c4cn[nH]c4)c(c23)O1 (stereo in doubt) [Example 69, (S)-6-(((S)-3-fluoropyrrolidin-1-yl)methyl)-4-methyl-2-(1H-pyrazol-4-yl)-5,7-dihydro-3-oxa-1-thia-7-azaacenaphthylen-8(4H)-one]"
21,< 1 nM,"CC1Cc2c(CN3CC[C@H](F)C3)[nH]c(=O)c3sc(-c4cn[nH]c4)c(c23)O1 (stereo in doubt) [Example 70, (R)-6-(((S)-3-fluoropyrrolidin-1-yl)methyl)-4-methyl-2-(1H-pyrazol-4-yl)-5,7-dihydro-3-oxa-1-thia-7-azaacenaphthylen-8(4H)-one]"
